Assay results: patent publication US7776904B2, “Azabicyclo [3.1.0] hexylphenyl derivatives as modulators of dopamine D3 receptors” (Glaxo Group Limited, priority 2005, dated 2010)

Molecular target: T1, dopamine D3 receptor (Homo sapiens, UniProt P35462)
T1 construct: expressed in transfected cells; membranes prepared from them
Experiment: GTPγS scintillation proximity assay (GTPγS-SPA), CHO_D3 cell membranes
Type: biochemical
Conditions: Enantiomer 2 compared with Enantiomer 1 of Example 1
Experimental: Functional potency and intrinsic activity of compounds of this invention can be measured by the following GTPγS scintillation proximity assay (GTPγS-SPA). Cells used in the study are Chinese Hamster Ovary (CHO) Cells.
Compounds may be tested according to two alternative protocols:
a) Cell membranes are prepared as follows. Cell pellets are resuspended in 10 volumes of 50 mM HEPES, 1 mM EDTA pH 7.4, using KOH. On the day the following proteases are added to the buffer just prior to giving the homogenisation buffer.
The cells are homogenised by 2×15 second bursts in a 1 litre Glass Waring blender in a class two biohazard cabinet. The resulting suspension is spun at 500 g for 20 mins (Beckman T21 centrifuge: 1550 rpm). The supernatant is withdrawn with a 25 ml pipette, aliquotted into pre-chilled centrifuge tubes and spun at 48,000 g to pellet membrane fragments (Beckman T1270: 23,000 rpm for 30 mins). The final 48,000 g pellet is resuspended in Homogenisation Buffer, (4× the volume of the original cell pellet). […] Protein content in the membrane preparations is evaluated with the Bradford protein assay.
The final top concentration of test drug is 3 uM in the assay and 11 points serial dilution curves 1:4 in 100% DMSO are carried out using a Biomek FX. […] Assay plates are counted on a Viewlux, 613/55 filter, for 5 min., between 2-6 hours after the final addition. […]

T1 sequence (P35462 whole entry, species assumed): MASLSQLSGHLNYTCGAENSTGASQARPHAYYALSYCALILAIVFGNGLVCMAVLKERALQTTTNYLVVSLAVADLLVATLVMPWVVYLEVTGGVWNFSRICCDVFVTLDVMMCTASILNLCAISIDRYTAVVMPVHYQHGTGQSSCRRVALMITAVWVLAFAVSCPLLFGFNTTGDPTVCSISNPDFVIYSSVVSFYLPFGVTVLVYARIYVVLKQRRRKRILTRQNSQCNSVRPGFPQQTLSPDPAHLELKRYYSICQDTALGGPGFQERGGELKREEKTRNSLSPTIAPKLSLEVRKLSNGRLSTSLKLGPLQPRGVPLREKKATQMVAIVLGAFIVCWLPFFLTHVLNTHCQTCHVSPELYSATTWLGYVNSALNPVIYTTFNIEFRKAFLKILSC

With CC(C)c1ccc(S(=O)(=O)Nc2ccc(C34CNCC3C4)cc2)cc1.Cl (single isomer, unassigned; enantiomer 2) [Enantiomer 2, N-{4-[(1R,5R or 1S,5R)-3-azabicyclo[3.1.0]hex-1-yl]phenyl}-4-(1-methylethyl)benzenesulfonamide hydrochloride] the “fpki (D3) difference, higher than Enantiomer 1” value was greater than 1 log-unit.
